Experimental data published in patent US12318452B2, “Degraders of WEE1 kinase” (DANA-FARBER CANCER INSTITUTE, INC., priority 2018, dated 2025).
Values joined by “and” are separate entries in the source; they are usually repeats but may differ in a detail not shown here. Equal entries are not always repeated.

Legend:
[1] = molecular target: T1, Wee1 (Homo sapiens, UniProt P30291); experiment: LanthaScreen FRET-based biochemical binding assay for Wee1; details: LanthaScreen Binding activity assay; average of two replicates ± SD
T1 sequence (P30291 whole entry): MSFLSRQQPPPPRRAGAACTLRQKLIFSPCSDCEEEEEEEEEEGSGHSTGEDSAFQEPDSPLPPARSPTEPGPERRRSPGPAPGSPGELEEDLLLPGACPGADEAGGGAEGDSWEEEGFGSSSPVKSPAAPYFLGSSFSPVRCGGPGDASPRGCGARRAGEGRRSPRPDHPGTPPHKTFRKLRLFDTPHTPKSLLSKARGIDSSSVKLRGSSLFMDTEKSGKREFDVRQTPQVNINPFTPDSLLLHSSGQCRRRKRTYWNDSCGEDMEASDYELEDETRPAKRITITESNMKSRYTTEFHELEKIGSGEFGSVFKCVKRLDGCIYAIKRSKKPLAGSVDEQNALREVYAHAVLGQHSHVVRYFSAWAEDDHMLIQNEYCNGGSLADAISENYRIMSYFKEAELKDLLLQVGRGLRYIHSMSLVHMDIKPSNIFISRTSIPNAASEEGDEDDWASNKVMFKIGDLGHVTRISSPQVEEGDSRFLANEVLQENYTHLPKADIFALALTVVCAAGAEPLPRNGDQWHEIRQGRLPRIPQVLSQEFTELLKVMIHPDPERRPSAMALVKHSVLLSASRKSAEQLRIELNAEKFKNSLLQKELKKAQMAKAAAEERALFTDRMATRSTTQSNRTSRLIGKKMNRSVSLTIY
Protocol: (§1) LanthaScreen™ assays were conducted for Wee1 in a 10-point dose response as performed in the commercial assay service by Life Technologies™. Z′-LYTE™ assays were conducted for PLK1 as performed in the commercial assay service by Life Technologies™ in a 10-point dose response using Km ATP concentrations.

[2] = molecular target: T1, Wee1; experiment: Cellular degradation of Wee1 by immunoblot, 6-hour treatment of MOLT4 cells; assay type: cell-based; parameters: endogenous in cells; host or cells: MOLT4 (wild type; CRBN-/- as control); details: MOLT-4, 1 μM, MOLT4 cells, approximated by immunoblot, read-out: Extent of Degradation of Wee1
Protocol: General Protocol: HT-29, MOLT4 wild type (WT) or CRBN^-/- cells were plated in a 6 well plate and treated for 6 hours with the indicated concentrations of the inventive compounds and control. HT-29 cells were cultured in McCoy's Media supplemented with 10% FBS and 1% Penicillin/Streptomycin. MOLT4 WT and CRBN^-/- cells were cultured in Roswell Park Memorial Institute (RPMI) medium supplemented with 10% FBS and 1% Penicillin/Streptomycin. Mycoplasma testing was performed every month and all lines were negative. Immunoblotting: Cells were washed with phosphate-buffered saline (PBS) and then lysed using radioimmunoprecipitation assay (RIPA) buffer supplemented with protease and phosphatase inhibitor cocktail (Roche) on ice for 15 minutes. The lysates were centrifuged at 14,000 rpm for 15 minutes at 4° C. and protein was quantified by bicinchoninic acid (BCA) assay (PierceTM). Primary antibodies used include: Wee1 ([…]) (Cell Signaling Technology®, 13084S), polo-like kinase 1 (PLK1) (Thermo Fisher Scientific, 37-7000), phosphor-cdc2 (Y15) (10A11) (Cell Signaling Technology®, […]), phospho-histone H3 ([…]) (Cell Signaling Technology®, […]), Ikaros ([…]) (Cell Signaling Technology®, 14859S), Aiolos ([…]) (Cell Signaling Technology®, 15103), casein kinase 1 alpha (Abcam®, 108296), β-actin (Cell Signaling Technology®, 8H10D10). FIG. 2A is an immunoblot showing that compound 13 degraded Wee1 after a 6-hour treatment in MOLT4 cells, and induced the downstream changes expected from Wee1 loss-including a decrease in phosphorylated cyclin-dependent kinase 1 (pCDK1) (Y15) and an increase in pH 3. […] Degradation of Wee1 by compound 13 was rescued in MOLT4 CRBN^-/- cells. MOLT4 WT and CRBN^-/- cells were plated in a 6-well plate at 2.25 million cells per well in 3 mL media (RPMI+10% FBS+1% Penn/Strep). After treatment with the indicated concentrations of candidate compounds, cells were incubated for 6 hours at 37° C. 5% CO2. To harvest, the cells were washed 1× with cold PBS, then collected by centrifugation. Cell pellets were lysed in RIPA buffer with protease and phosphatase inhibitors (Roche). Lysates were clarified by centrifugation, and protein concentrations were normalized using a BCA assay (Thermo ScientificTM). The samples were diluted with 4×LDS+10% β-mercaptoethanol, and were boiled at 95° C. for 5 minutes. Proteins of interest were then assessed by western blotting. […] The experimental protocol was the same as in Example 28.

[3] = molecular target: PLK1 (Homo sapiens, UniProt P53350); experiment: Z′-LYTE kinase activity assay for PLK1; assay type: biochemical; parameters: purchased Life Technologies (Invitrogen) commercial assay service; details: Km ATP, average of two replicates ± SD
PLK1, sequence (P53350 whole entry): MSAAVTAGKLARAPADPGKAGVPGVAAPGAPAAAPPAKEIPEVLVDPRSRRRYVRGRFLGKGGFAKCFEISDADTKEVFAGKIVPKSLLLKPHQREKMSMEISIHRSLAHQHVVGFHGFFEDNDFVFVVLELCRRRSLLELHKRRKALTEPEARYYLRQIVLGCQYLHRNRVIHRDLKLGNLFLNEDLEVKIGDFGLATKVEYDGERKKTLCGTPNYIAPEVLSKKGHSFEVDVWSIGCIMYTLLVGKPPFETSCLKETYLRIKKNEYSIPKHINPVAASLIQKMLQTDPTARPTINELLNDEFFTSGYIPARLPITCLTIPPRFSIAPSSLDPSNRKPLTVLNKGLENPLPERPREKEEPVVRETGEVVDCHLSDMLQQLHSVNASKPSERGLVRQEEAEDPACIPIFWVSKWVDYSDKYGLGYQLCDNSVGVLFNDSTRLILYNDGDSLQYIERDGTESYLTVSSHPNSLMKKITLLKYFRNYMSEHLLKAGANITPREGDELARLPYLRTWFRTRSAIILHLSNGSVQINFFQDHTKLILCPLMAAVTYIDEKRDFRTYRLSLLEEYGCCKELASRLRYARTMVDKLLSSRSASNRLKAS
Protocol: as §1
The selectivity of Wee1 degradation was then assessed by performing multiplexed mass spectrometry (MS)-based proteomics in MOLT4 cells treated with 100 nM of compound 13 for 2 hours (Donovan et al., Elife 7:e38430 (2018)).

[4] = molecular target: T1, Wee1; experiment: Wee1 degradation immunoblot in MOLT4 cells, 5-hr dose response and time course; assay type: cell-based; parameters: endogenous in cells; host or cells: MOLT4 (wild type; CRBN-/- as control); details: MOLT4 cells
Protocol: (§2) Whole cell lysates for immunoblotting were prepared by pelleting cells from each cell line at 4° C. (300 g) for 5 minutes. The resulting cell pellets were washed 1× with ice-cold PBS and then resuspended in RIPA lysis buffer (Sigma, cat #R0278) supplemented with protease and phosphatase inhibitor tablets (Roche cat #4906845001). Lysates were clarified at 14,000 rpm for 15 minutes at 4° C. prior to quantification by BCA assay (Pierce™, cat #23225). Whole cell lysates were loaded into Bolt 4-12% Bis-Tris Gels (Thermo Fisher, cat #NW04120BOX) and separated by electrophoreses at 95 V for 1.5 hours. The gels were transferred to a nitrocellulose membrane using the iBlot® Gel Transfer at P3 for 7 minutes (Thermo Fisher, cat #IB23001) and then blocked for 1 hour at room temperature in Odyssey® blocking buffer (LICOR® Biosciences, cat #927-50010). Membranes were probed using antibodies against the relevant proteins at 4° C. overnight in 20% Odyssey® Blocking Buffer in 1×TBST. Membranes were then washed three times with 1×TBST (at least 5 minutes per wash) followed by incubation with the IRDye® goat anti-mouse (LICOR®, cat #926-32210) or goat anti-rabbit (LICOR®, cat #926-32211) secondary antibody (diluted 1:10,000) in 20% Odyssey® Blocking Buffer in 1×TBST for 1 hour at room temperature. After three washes with 1×TBST (at least 5 minutes per wash), the immunoblots were visualized using the ODYSSEY® Infrared Imaging System (LICOR®).
(§3) MOLT4 cells were plated at 1.5 million cells per well in a 6-well plate, with 3 mL of media per well. Cells were then immediately treated with the indicated concentration of the indicated compound and incubated for the indicated amount of time. Cells were collected by transferring each well to a 15 mL conical, centrifuging (1000 rpm for 3 min), then washing the cell pellet 2× with cold PBS. Each cell pellet was then lysed in 100 μL of RIPA lysis buffer (+protease/phosphatase inhibitors). Samples were normalized and prepped in 4×LDS+10% β-mercaptoethanol and boiled for 5 min at 95° C. Lysates were probed for specified proteins by western blotting using the Bolt® system (Life Technologies™)
To confirm that compound 13-mediated Wee1 degradation is CRBN dependent (FIG. 1D), Wee1 degradation profiles in parental versus CRBN^−/− MOLT4 cells were compared. In parental MOLT4 cells, compound 13 induced potent Wee1 degradation after 5 hours, with maximal degradation observed at 100 nM and a “hook effect” apparent at the top concentration of 10 μM, where compound 13:CRBN and compound 13-Wee1 binary complexes inhibit the formation of a productive ternary complex (Toure and Crews, Angew. Chem. 55:1966-1973 (2016)).
To evaluate the kinetics of Wee1 degradation, a time course study was performed in MOLT4 cells using 100 nM compound 13. Degradation occurred rapidly, with over 50% degradation achieved within 30 min, and complete degradation reached by 3 hr (FIG. 4C).

[5] = system: MOLT4 cells (parental, wild type); experiment: CellTiter-Glo cell viability, 72 hours; assay type: cell-based
Protocol: The indicated cell lines were plated in flat bottom 384-well plates (Corning® cat #3570). MOLT4 cells were plated at a density of 3,000 cells per well in 50 μL media, while OVCAR8, COV362, and Kuramochi cells were plated at a density of 750 cells per well in 50 μL media. Cells were treated the next day (except for MOLT4 cells, which were treated the same day as plating) with 0.1 μL of the indicated compounds in a four-fold dilution series using the Janus pinner. Cells were incubated with compounds for 72 hours at 37° C. 5% CO2. Anti-proliferative effects were then assessed by CellTiter-Glo® Luminescent Cell Viability Assay (Promega™ cat #G7570) according to the manufacturer's standards, measuring luminescence using an EnVision® plate-reader. IC50 values were determined using a non-linear regression curve fit in GraphPad Prism 8. N=4 biological replicates were used for each treatment condition.
MOLT4 cells were plated in a 384-well plate at 5,000 cells per well in 50 μL media (RPMI+10% FBS+1% Penn/Strep) and treated with 0.1 μL of the candidate compounds in four-fold dilution series using the Janus pinner. Cells were incubated with compounds for 72 hours at 37° C. 5% CO2. Anti-proliferative effects of these compounds were assessed 72 hours after compound addition using CellTiter-Glo® (Promega, cat #G7571). All proliferation assays were performed in biological quadruplicate. […] Effects upon cell viability for compound 13 in the MOLT4 WT cells are therefore likely driven in part by Wee1 inhibition, and in part by CRBN-mediated Wee1 degradation. […] Degradation of Wee1 with compound 21 was mediated by VHL.

[6] = system: MOLT4 cells; experiment: Cell cycle analysis by propidium iodide staining; assay type: cell-based
Protocol: MOLT4 cells were plated at 1.5 million cells per well in a 6-well plate, with 3 mL of media per well. Immediately after plating, cells were treated with the indicated concentrations of the indicated compound. At the indicated time points, cells were collected by transferring each well to a 15 mL conical, centrifuging (1000 rpm for 3 min), and then washing the cell pellet 3× with cold PBS. Cell pellets were then fixed with 1 mL cold 80% ethanol in PBS at 4° C. overnight. The cell pellets were then washed by adding 1 mL of PBS and then centrifuging (1500 rpm for 5 minutes), followed by aspiration of the PBS/ethanol mix. Cells were resuspended in cell cycle staining solution (100 μg/mL of RNAse A (Roche, 10109169001) and 50 μg/mL propidium iodide (Life Technologies™, P1304MP), diluted in PBS, and incubated for 10 minutes at room temperature. Cell cycle data was acquired by flow cytometry on a Guava® easyCyte™ flow cytometer (Millipore™) using the InCyte™ software. Data was analyzed using FlowJo®. N=3 biological replicates were used for each treatment condition.

[7] = system: pCDK1 Y15; experiment: Downstream signalling immunoblot in MOLT4 cells (pCDK1 Y15, cleaved PARP, γH2Ax); assay type: cell-based; details: 24-hr, MOLT4 cells
Protocol: as §2, §3
The effects of targeted Wee1 degradation on the cell cycle were evaluated. Wee1 is required for the temporal regulation of CDK1 at the G2/M cell-cycle checkpoint, and Wee1 loss therefore […] via activation of CDK1. Following loss of Wee1 activity, cells are expected to enter mitosis before completing DNA repair, ultimately resulting in excessive unrepaired DNA damage, mitotic catastrophe, and apoptosis (Beck et al., Mol. Cell Biol. 32:4226-4236 (2012)).

## C=CCn1c(=O)c2cnc(Nc3ccc(N4CCN(CCCCCCNc5cccc6c5C(=O)N(C5CCC(=O)NC5=O)C6=O)CC4)cc3)nc2n1-c1cccc(C(C)(C)O)n1 (stereo not drawn) [Compound 11, 4-((6-(4-(4-((2-allyl-1-(6-(2-hydroxypropan-2-yl)pyridin-2-yl)-3-oxo-2,3-dihydro-1H-pyrazolo[3,4-d]pyrimidin-6-yl)amino)phenyl)piperazin-1-yl)hexyl)amino)-2-(2,6-dioxopiperidin-3-yl)isoindoline-1,3-dione]
[1]
  IC50: 4.46 ± 0.95 nM
[2]
  percent Wee1 degradation at 1 µM: 25 to 50%
[3]
  IC50: 23.6 ± 4 nM
[4]; 5-hr exposure, 100 nM-10 μM
  Wee1 degradation: degraded Wee1

## Nc1cccc2c1CN(C1CCC(=O)NC1=O)C2=O (stereo not drawn) [Lenalidomide, reference compound]
[5]; 72-hr
  Antiproliferative activity: no detectable antiproliferative activity
[6]; 1 μM, 24 hours, MOLT4 cells
  Effect on the cell cycle: did not induce any significant changes

## C=CCn1c(=O)c2cnc(Nc3ccc(N4CCN(CCCNC(=O)CCOCCOCCNc5cccc6c5C(=O)N(C5CCC(=O)NC5=O)C6=O)CC4)cc3)nc2n1-c1cccc(C(C)(C)O)n1 (stereo not drawn) [Compound 7, N-(3-(4-(4-((2-allyl-1-(6-(2-hydroxypropan-2-yl)pyridin-2-yl)-3-oxo-2,3-dihydro-1H-pyrazolo[3,4-d]pyrimidin-6-yl)amino)phenyl)piperazin-1-yl)propyl)-3-(2-(2-((2-(2,6-dioxopiperidin-3-yl)-1,3-dioxoisoindolin-4-yl)amino)ethoxy)ethoxy)propanamide]
[1]
  IC50: 1 to 10 nM and 7.28 nM
[2]
  percent Wee1 degradation at 1 µM: > 50%
[3]
  IC50: 118 ± 6 nM
[4]; 5-hr treatment
  Concentration required to achieve maximal Wee1 degradation: 1 µM

## C=CCn1c(=O)c2cnc(Nc3ccc(N4CCN(C)CC4)cc3)nc2n1-c1cccc(C(C)(C)O)n1 [AZD1775, 2-allyl-1-[6-(1-hydroxy-1-methylethyl)pyridin-2-yl]-6-{[4-(4-methylpipera-zin-1-yl)phenyl]amino}-1,2-dihydro-3H-pyrazolo[3,4-d]pyrimidin-3-one, reference compound]
[7]; 100 nM
  Downstream signalling changes (pCDK1 Y15, PARP cleavage, γH2Ax): did not produce any noticeable changes
[7]
  Treatment necessary to induce the same downstream changes as 100 nM of compound 13: 1 µM
[5]; Homo sapiens, MOLT-4, 72 hours, read-out: Antiproliferative IC50
  IC50: 800 nM
[3]
  IC50: 212 ± 12 nM
[6]; 100 nM, 24-hr, MOLT4 cells
  Effect on the cell cycle: did not appreciably affect the cell cycle
[6]; 24-hr, MOLT4 cells
  Dose needed to elicit the same cell cycle changes as 100 nM of compound 13: 1 µM
[6]; CRBN−/− MOLT4 cells, 24 hours
  Cell cycle effects in CRBN−/− cells: unchanged

## C=CCn1c(=O)c2cnc(Nc3ccc(N4CCN(CCOCCOCCOCCNc5cccc6c5C(=O)N(C5CCC(=O)NC5=O)C6=O)CC4)cc3)nc2n1-c1cccc(C(C)(C)O)n1 (stereo not drawn) [Compound 12, 4-((2-(2-(2-(2-(4-(4-((2-allyl-1-(6-(2-hydroxypropan-2-yl)pyridin-2-yl)-3-oxo-2,3-dihydro-1H-pyrazolo[3,4-d]pyrimidin-6-yl)amino)phenyl)piperazin-1-yl)ethoxy)ethoxy)ethoxy)ethyl)amino)-2-(2,6-dioxopiperidin-3-yl)isoindoline-1,3-dione]
[1]
  IC50: 1 to 10 nM and 3.18 nM
[2]
  percent Wee1 degradation at 1 µM: > 50%
[3]
  IC50: 285 ± 14 nM
[4]; 5-hr treatment
  Concentration giving maximal (sufficient) Wee1 degradation: 100 nM
